From patent US20240059703A1 (AMGEN INC., priority 2021, published 2024)

The compounds below were run against KRAS G12C (Homo sapiens (Human), UniProt P01116, C118A/G12C) (assay: 2 h coupled exchange assay). Conditions: Avg 2 h Coupled exchange IC50, 2 h compound pre-incubation, SOS-mediated nucleotide exchange.
Assay type: biochemical
Description: The term “2 h coupled exchange assay” or “20 h coupled exchange assay” as used herein refers to the assay described in the Section entitled “BIOLOGICAL EVALUATION.”

KRAS G12C, sequence (P01116 other isoform, or with tags, fused parts or gaps G12C/C118A): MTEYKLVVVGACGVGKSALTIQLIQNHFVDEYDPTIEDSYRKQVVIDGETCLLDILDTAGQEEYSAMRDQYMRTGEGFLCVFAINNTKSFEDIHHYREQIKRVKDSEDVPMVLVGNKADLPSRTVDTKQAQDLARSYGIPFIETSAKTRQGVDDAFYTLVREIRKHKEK

IC50 [nM]	SMILES
623	C=CC(=O)N1CC2(CCN(c3nc4c(c(-c5ccc(F)c6cc[nH]c56)c3C#N)COC(C)(C)C4)C2)C1 [Example 12-3, 4-(4-fluoro-1H-indol-7-yl)-7,7-dimethyl-2-(2-(2-propenoyl)-2,6-diazaspiro[3.4]octan-6-yl)-7,8-dihydro-5H-pyrano[4,3-b]pyridine-3-carbonitrile]
818	C=CC(=O)N1CC2(CCN(c3nc4c(c(-c5cccc6cc(N)ccc56)c3C#N)COC(C)(C)C4)C2)C1 [Example 12-4, 4-(6-amino-1-naphthalenyl)-7,7-dimethyl-2-(2-(2-propenoyl)-2,6-diazaspiro[3.4]octan-6-yl)-7,8-dihydro-5H-pyrano[4,3-b]pyridine-3-carbonitrile]
463	C=CC(=O)N1CC2(CCN(c3nc4c(c(-c5ccc(Cl)c6ccn(C)c56)c3C#N)COC(C)(C)C4)C2)C1 [Example 12-5, 4-(4-chloro-1-methyl-1H-indol-7-yl)-7,7-dimethyl-2-(2-(2-propenoyl)-2,6-diazaspiro[3.4]octan-6-yl)-7,8-dihydro-5H-pyrano[4,3-b]pyridine-3-carbonitrile]
213	C=CC(=O)N1CC2(CCN(c3nc4c(c(-c5ccc(Cl)c6cc[nH]c56)c3C#N)COC(C)(C)C4)C2)C1 [Example 12-6, 4-(4-chloro-1H-indol-7-yl)-7,7-dimethyl-2-(2-(2-propenoyl)-2,6-diazaspiro[3.4]octan-6-yl)-7,8-dihydro-5H-pyrano[4,3-b]pyridine-3-carbonitrile]
435	C=CC(=O)N1CC2(CCN(c3nc4c(c(-c5cc(Cl)cc6cc[nH]c56)c3C#N)COC(C)(C)C4)C2)C1 [Example 12-7, 4-(5-chloro-1H-indol-7-yl)-7,7-dimethyl-2-(2-(2-propenoyl)-2,6-diazaspiro[3.4]octan-6-yl)-7,8-dihydro-5H-pyrano[4,3-b]pyridine-3-carbonitrile]
399	C=CC(=O)N1CC2(CCN(c3nc4c(c(-c5cc(Cl)cc6ccn(C)c56)c3C#N)COC(C)(C)C4)C2)C1 [Example 12-8, 4-(5-chloro-1-methyl-1H-indol-7-yl)-7,7-dimethyl-2-(2-(2-propenoyl)-2,6-diazaspiro[3.4]octan-6-yl)-7,8-dihydro-5H-pyrano[4,3-b]pyridine-3-carbonitrile]
252	C=CC(=O)N1CC2(CCN(c3nc4c(c(-c5c(Cl)ccc6cc[nH]c56)c3C#N)COC(C)(C)C4)C2)C1 [Example 12-13, 4-(6-chloro-1H-indol-7-yl)-7,7-dimethyl-2-(2-(2-propenoyl)-2,6-diazaspiro[3.4]octan-6-yl)-7,8-dihydro-5H-pyrano[4,3-b]pyridine-3-carbonitrile]
246	C=CC(=O)N1CC2(CCN(c3nc4c(c(-c5c(Cl)ccc6ccn(C)c56)c3C#N)COC(C)(C)C4)C2)C1 [Example 12-14, 4-(6-chloro-1-methyl-1H-indol-7-yl)-7,7-dimethyl-2-(2-(2-propenoyl)-2,6-diazaspiro[3.4]octan-6-yl)-7,8-dihydro-5H-pyrano[4,3-b]pyridine-3-carbonitrile]
464	C=CC(=O)N1CC2(CCN(c3nc4c(c(-c5c(F)ccc6cc[nH]c56)c3C#N)C[C@H]3C[C@@H]4C3(C)C)C2)C1 [Example 12-15, (1R,9R)-6-(6-fluoro-1H-indol-7-yl)-10,10-dimethyl-4-(2-(2-propenoyl)-2,6-diazaspiro[3.4]octan-6-yl)-3-azatricyclo[7.1.1.0^2,7] undeca-2,4,6-triene-5-carbonitrile]

Second part, the compound before the results:

SMILES	IC50 [nM]
C=CC(=O)N1CC2(CCN(c3nc4c(c(-c5cc(O)ccc5Cl)c3C)COC(C)(C)C4)C2)C1 [Example 2-35, 1-(6-(4-(2-chloro-5-hydroxyphenyl)-3,7,7-trimethyl-7,8-dihydro-5H-pyrano[4,3-b]pyridin-2-yl)-2,6-diazaspiro[3.4]octan-2-yl)-2-propen-1-one]	186
C=CC(=O)N1CC2(CCN(c3nc4c(c(-c5cc(O)ccc5C)c3C#N)C3CCC4C3)C2)C1 [Example 2-37, (1R,8S)-6-(5-hydroxy-2-methylphenyl)-4-(2-(2-propenoyl)-2,6-diazaspiro[3.4]octan-6-yl)-3-azatricyclo[6.2.1.0^2,7]undeca-2,4,6-triene-5-carbonitrile|(1S, 8R)-6-(5-hydroxy-2-methylphenyl)-4-(2-(2-propenoyl)-2,6-diazaspiro[3,4]octan-6-yl)-3-azatricyclo[6.2.1.0^2.7]undeca-2,4,6-triene-5-carbonitrile]	298
C=CC(=O)N1CC2(CCN(c3nc4c(c(-c5cc(O)cc6ccncc56)c3C#N)C[C@H]3C[C@@H]4C3(C)C)C2)C1 [Example 2-41, (1R,9R)-6-(6-hydroxy-8-isoquinolinyl)-10,10-dimethyl-4-(2-(2-propenoyl)-2,6-diazaspiro[3.4]octan-6-yl)-3-azatricyclo[7.1.1.0^2,7]undeca-2,4,6-triene-5-carbonitrile]	113
C=CC(=O)N1CC2(CCN(c3nc4c(c(-c5cc(O)cc6cccnc56)c3C#N)C[C@H]3C[C@@H]4C3(C)C)C2)C1 [Example 2-43, (1R,9R)-6-(6-hydroxy-8-quinolinyl)-10,10-dimethyl-4-(2-(2-propenoyl)-2,6-diazaspiro[3,4]octan-6-yl)-3-azatricyclo[7.1.1.0^2,7]undeca-2,4,6-triene-5-carbonitrile]	193
C=CC(=O)N1CC2(CCN(c3nc4cc(OC)cnc4c(-c4c(C)ccc5[nH]ncc45)c3C)C2)C1 [Example 2-51, 1-(6-(7-methoxy-3-methyl-4-(5-methyl-1H-indazol-4-yl)-1,5-naphthyridin-2-yl)-2,6-diazaspiro[3.4]octan-2-yl)-2-propen-1-one]	267
C=CC(=O)N1CC2(CCN(c3nc4c(c(-c5ccccc5Cl)c3C#N)C[C@H]3C[C@@H]4C3(C)C)C2)C1 [Example 2-63, (1R,9R)-6-(2-chlorophenyl)-10,10-dimethyl-4-(2-(2-propenoyl)-2,6-diazaspiro[3.4]octan-6-yl)-3-azatricyclo[7.1.1.0^2,7]undeca-2,4,6-triene-5-carbonitrile]	793
C=CC(=O)N1CC2(CCN(c3nc4c(c(-c5cc(CO)ccc5Cl)c3C#N)C[C@H]3C[C@@H]4C3(C)C)C2)C1 [Example 2-65, (1R,9R)-6-(2-chloro-5-(hydroxymethyl)phenyl)-10,10-dimethyl-4-(2-(2-propenoyl)-2,6-diazaspiro[3.4]octan-6-yl)-3-azatricyclo[7.1.1.0^2,7]undeca-2,4,6-triene-5-carbonitrile]	735
C=CC(=O)N1CC2(CCN(c3nc4c(c(-c5cccc(F)c5O)c3C#N)C[C@H]3C[C@@H]4C3(C)C)C2)C1 [Example 2-70, (1R,9R)-6-(3-fluoro-2-hydroxyphenyl)-10,10-dimethyl-4-(2-(2-propenoyl)-2,6-diazaspiro[3.4]octan-6-yl)-3-azatricyclo[7.1.1.0^2,7]undeca-2,4,6-triene-5-carbonitrile]	1340
C=CC(=O)N1CC2(CCN(c3nc4c(c(-c5cccc6c(O)cccc56)c3C)COC(C)(C)C4)C2)C1 [Example 2-82, 1-(6-(4-(5-hydroxy-1-naphthalenyl)-3,7,7-trimethyl-7,8-dihydro-5H-pyrano[4,3-b]pyridin-2-yl)-2,6-diazaspiro[3,4]octan-2-yl)-2-propen-1-one]	641
C=CC(=O)N1CC2(CCN(c3nc4c(c(-c5c(C)ccc6cnn(C)c56)c3Cl)COC(C)(C)C4)C2)C1 [Example 2-86, 1-(6-(3-chloro-4-(1,6-dimethyl-1H-indazol-7-yl)-7,7-dimethyl-7,8-dihydro-5H-pyrano[4,3-b]pyridin-2-yl)-2,6-diazaspiro[3.4]octan-2-yl)-2-propen-1-one]	6150
C=CC(=O)N1CC2(CCN(c3nc4c(c(-c5c(C)c(Cl)cc6[nH]ncc56)c3Cl)COC(C)(C)C4)C2)C1 [Example 2-92, 1-(6-(3-chloro-4-(6-chloro-5-methyl-1H-indazol-4-yl)-7,7-dimethyl-7,8-dihydro-5H-pyrano[4,3-b]pyridin-2-yl)-2,6-diazaspiro[3.4]octan-2-yl)-2-propen-1-one]	21
Cc1ccc2[nH]ncc2c1-c1c(C#N)c(N2CCC3(CN(C(=O)/C=C/CN(C)C)C3)C2)cc2c1COCC2 [Example 2-94, 6-(2-((2E)-4-(dimethylamino)-2-butenoyl)-2,6-diazaspiro[3.4]octan-6-yl)-8-(5-methyl-1H-indazol-4-yl)-3,4-dihydro-1H-2-benzopyran-7-carbonitrile]	610
C=CC(=O)N1CC2(CCN(c3cc4c(c(-c5c(C)ccc6cnn(C)c56)c3Cl)OCCC4)C2)C1 [Example 2-102, 1-(6-(7-chloro-8-(1,6-dimethyl-1H-indazol-7-yl)-3,4-dihydro-2H-chromen-6-yl)-2,6-diazaspiro[3.4]octan-2-yl)-2-propen-1-one]	70
C=CC(=O)N1CC2(CCN(c3nc4c(c(-c5cc(S(N)(=O)=O)ccc5C)c3C#N)CCC(C)(C)C4)C2)C1 [Example 2-106, 3-(3-cyano-7,7-dimethyl-2-(2-(2-propenoyl)-2,6-diazaspiro[3.4]octan-6-yl)-5,6,7,8-tetrahydro-4-quinolinyl)-4-methylbenzenesulfonamide]	288
C=CC(=O)N1CC2(CCN(c3nc4ccccc4c(-c4c(CC)ccc5[nH]ncc45)c3C#N)C2)C1 [Example 4, 4-(5-ethyl-1H-indazol-4-yl)-2-(2-(2-propenoyl)-2,6-diazaspiro[3.4]octan-6-yl)-3-quinolinecarbonitrile]	1050
C=CC(=O)N1CC2(CCN(c3nc4ccccc4c(-c4c(C)ccc5[nH]ncc45)c3C3CC3)C2)C1 [Example 6, 1-(6-(3-cyclopropyl-4-(5-methyl-1H-indazol-4-yl)quinolin-2-yl)-2,6-diazaspiro[3.4]octan-2-yl)prop-2-en-1-one]	3500
C=CC(=O)N1CC2(CCN(c3nc4ccccc4c(-c4c(C)ccc5[nH]ncc45)c3C)C2)C1 [Example 8, 1-(6-(3-Methyl-4-(5-methyl-1H-indazol-4-yl)quinolin-2-yl)-2,6-diazaspiro[3.4]octan-2-yl)prop-2-en-1-one]	1270
